Values after ≈ are worked out from the molar mass of the structure shown. Each block holds one compound with its values, some of them ahead of it. Where a SMILES comes first, the peptide text is derived from it. [ ]: non-standard residue; d: D form. dHyp = O=C(O)[C@H]1C[C@H](O)CN1
What was measured:
[1] = tested on: BV2 (mouse microglia) cell line; test: pHrodo-myelin phagocytosis/cell viability high content imaging assay: viability (cell count, nuclear area, nuclear intensity)
Procedure, shortened: (§1)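 Immortalized microglia are treated with compound (10 μM, single concentration) for 48 h, the final 20 h alongside pHrodo-myelin. Data are the mean of duplicates, reported as % of untreated control.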

[2] = tested on: BV2 (mouse microglia) cell line; test: pHrodo-myelin phagocytosis/cell viability high content imaging assay: phagocytosis signal; format: cell-based
Procedure, shortened: (§2)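 Cells receive pHrodo-myelin, then are imaged at high content approximately 22 hours later. Phagocytosis signal and viability are captured in the same run. Three measurements are extracted per well.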

[3] = tested on: HMC3 (human microglia) cell line; test: as above; format: cell-based
Procedure, shortened: as §2

[4] = physchem
[5] = tested on: HMC3 (human microglia) cell line; test: pHrodo-myelin phagocytosis/cell viability high content imaging assay: viability (cell count, nuclear area, nuclear intensity)
Procedure, shortened: as §1

[6] = Kinetic solubility in aqueous buffer pH 7.4 by total chemiluminescent nitrogen determination (Analiza); conditions: for solubility kinetic: aqueous buffer, pH 7.4, aqueous buffer, kinetic from dmso stock
[7] = tested on: cellular system; conditions: published cellular activity at 10 μM; cited from earlier work
[8] = pH 7.4, aqueous buffer, kinetic from dmso stock
[9] = BV2 cells, 10 μM, cell count <70% control

SMILES: CC(C)CCC[C@@H](C)[C@H]1CC[C@H]2[C@@H]3CC[C@H]4C[C@H](N)CC[C@]4(C)[C@H]3CC[C@]12C [3α-Aminocholestane]
Mouse microglial cytotoxicity at 10 μM (<70% control) ([1]; 10 μM, BV2): Y (The compound was found to be cytotoxic (cell count threshold: <70% control) when murine immortalized microglial cells were dosed at 10 μM (Y: yes))
Stimulation of mouse microglial phagocytosis at 10 μM (>150% control) ([2]; 10 μM, BV2): Y (The compound was found to stimulate phagocytosis (response threshold: >150% control) when murine immortalized microglial cells were dosed at 10 μM (Y: yes))
Inhibition of human microglial phagocytosis at 10 μM (<70% control) ([3]; 10 μM, HMC3): Y (The compound was found to inhibit phagocytosis (response threshold: <70% control) when human immortalized microglial cells were dosed at 10 μM (Y: yes))
solubility kinetic [4, 8]: 2.2 µM (≈ 0.853 µg/mL)

SMILES: CCc1cc2c(cc1N1CCC(N3CCOCC3)CC1)C(C)(C)c1[nH]c3cc(C#N)ccc3c1C2=O [Alectinib]
Human microglial cytotoxicity at 10 μM (<70% control) ([5]; HMC3, 10 μM): Y (The compound was found to be cytotoxic (cell count threshold: <70% control) when human immortalized microglial cells were dosed at 10 μM (Y: yes))
Stimulation of mouse microglial phagocytosis at 10 μM (>150% control) ([2]; BV2, 10 μM): Y (The compound was found to stimulate phagocytosis (response threshold: >150% control) when murine immortalized microglial cells were dosed at 10 μM (Y: yes))
Inhibition of human microglial phagocytosis at 10 μM (<70% control) ([3]; HMC3, 10 μM): Y (The compound was found to inhibit phagocytosis (response threshold: <70% control) when human immortalized microglial cells were dosed at 10 μM (Y: yes))
solubility kinetic [4, 8]: 0.6 µM (≈ 0.29 µg/mL)

SMILES: CNC(=O)c1c(F)cccc1Nc1nc(Nc2cc3c(cc2OC)CCN3C(=O)CN(C)C)nc2[nH]ccc12 [GSK1838705A]
Mouse microglial cytotoxicity at 10 μM (<70% control) ([1]; BV2, 10 μM): Y (The compound was found to be cytotoxic (cell count threshold: <70% control) when murine immortalized microglial cells were dosed at 10 μM (Y: yes))
Inhibition of human microglial phagocytosis at 10 μM (<70% control) ([3]; HMC3, 10 μM): Y (The compound was found to inhibit phagocytosis (response threshold: <70% control) when human immortalized microglial cells were dosed at 10 μM (Y: yes))
solubility kinetic [4, 8]: 1 µM (≈ 0.533 µg/mL)

SMILES: CCCCc1nc(Cl)c(CO)n1Cc1ccc(-c2ccccc2-c2nn[nH]n2)cc1 [Losartan]
solubility kinetic [4, 8]: 117 µM (≈ 49.6 µg/mL)

SMILES: COS(=O)(=O)[O-].C[n+]1c2ccccc2nc2ccccc21 [Phenazine methosulfate]
Mouse microglial cytotoxicity at 10 μM (<70% control) [1, 9]: Y (The compound was found to be cytotoxic (cell count threshold: <70% control) when murine immortalized microglial cells were dosed at 10 μM (Y: yes))
Human microglial cytotoxicity at 10 μM (<70% control) ([5]; HMC3 cells, 10 μM, cell count <70% control): Y (The compound was found to be cytotoxic (cell count threshold: <70% control) when human immortalized microglial cells were dosed at 10 μM (Y: yes))
Inhibition of mouse microglial phagocytosis at 10 μM (<70% control) ([2]; BV2 cells, 10 μM): Y (The compound was found to inhibit phagocytosis (response threshold: <70% control) when murine immortalized microglial cells were dosed at 10 μM (Y: yes))
Inhibition of human microglial phagocytosis at 10 μM (<70% control) ([3]; HMC3 cells, 10 μM): Y (The compound was found to inhibit phagocytosis (response threshold: <70% control) when human immortalized microglial cells were dosed at 10 μM (Y: yes))
Kinetic solubility ([6]; aqueous buffer pH 7.4): 101.8 µM
Reported as cell active (<10 μM) [7]: Y (Published data supports that the compound is active in a cellular system when dosed at 10 μM (Y/N))

SMILES: CC(C)(C)c1cc(NC(=O)Nc2ccc(-c3cn4c(n3)sc3cc(OCCN5CCOCC5)ccc34)cc2)no1 [Quizartinib]
solubility kinetic [4, 8]: 0.9 µM (≈ 0.505 µg/mL)

SMILES: COc1cc(/C=C/c2ccc(NC(=O)/C=C/c3cc(OC)c(OC)c(OC)c3)cc2)cc(OC)c1 [STAT3-IN-3]
Mouse microglial cytotoxicity at 10 μM (<70% control) [1, 9]: Y (The compound was found to be cytotoxic (cell count threshold: <70% control) when murine immortalized microglial cells were dosed at 10 μM (Y: yes))
Inhibition of mouse microglial phagocytosis at 10 μM (<70% control) ([2]; BV2 cells, 10 μM): Y (The compound was found to inhibit phagocytosis (response threshold: <70% control) when murine immortalized microglial cells were dosed at 10 μM (Y: yes))
Inhibition of human microglial phagocytosis at 10 μM (<70% control) ([3]; HMC3 cells, 10 μM): Y (The compound was found to inhibit phagocytosis (response threshold: <70% control) when human immortalized microglial cells were dosed at 10 μM (Y: yes))
solubility kinetic [6]: 4.9 µM (≈ 2.33 µg/mL)
Reported as cell active (<10 μM) [7]: Y (Published data supports that the compound is active in a cellular system when dosed at 10 μM (Y/N))

SMILES: CC(C)Nc1cc(-c2c[nH]c(C(=O)N[C@H](CO)c3cccc(Cl)c3)c2)c(Cl)cn1 [Ulixertinib]
Mouse microglial cytotoxicity at 10 μM (<70% control) ([1]; 10 μM, BV2): Y (The compound was found to be cytotoxic (cell count threshold: <70% control) when murine immortalized microglial cells were dosed at 10 μM (Y: yes))
Stimulation of mouse microglial phagocytosis at 10 μM (>150% control) ([2]; 10 μM, BV2): Y (The compound was found to stimulate phagocytosis (response threshold: >150% control) when murine immortalized microglial cells were dosed at 10 μM (Y: yes))
Inhibition of human microglial phagocytosis at 10 μM (<70% control) ([3]; 10 μM, HMC3): Y (The compound was found to inhibit phagocytosis (response threshold: <70% control) when human immortalized microglial cells were dosed at 10 μM (Y: yes))
solubility kinetic [4, 8]: 8.7 µM (≈ 3.77 µg/mL)

The next lines start with results.

solubility kinetic [4, 8]: 1.5 µM (≈ 1 µg/mL)
SMILES: CN(C)CC#Cc1ccc(OCCCc2sc(N3CCc4cccc(C(=O)Nc5nc6ccccc6s5)c4C3)nc2C(=O)O)c(F)c1 [A-1155463]
Stimulation of mouse microglial phagocytosis at 10 μM (>150% control) ([2]; BV2, 10 μM): Y (The compound was found to stimulate phagocytosis (response threshold: >150% control) when murine immortalized microglial cells were dosed at 10 μM (Y: yes))
Inhibition of human microglial phagocytosis at 10 μM (<70% control) ([3]; HMC3, 10 μM): Y (The compound was found to inhibit phagocytosis (response threshold: <70% control) when human immortalized microglial cells were dosed at 10 μM (Y: yes))

solubility kinetic [4, 8]: 163 µM (≈ 51.9 µg/mL)
SMILES: CC(=O)N1CCC(NC(=O)NC23CC4CC(CC(C4)C2)C3)CC1 [AR9281]
Stimulation of mouse microglial phagocytosis at 10 μM (>150% control) ([2]; BV2, 10 μM): Y (The compound was found to stimulate phagocytosis (response threshold: >150% control) when murine immortalized microglial cells were dosed at 10 μM (Y: yes))

solubility kinetic [4, 8]: 10.8 µM
SMILES: Cc1c(-c2ccc(O)cc2)n(Cc2ccc(OCCN3CCCCCC3)cc2)c2ccc(O)cc12 [Bazedoxifene acetate]
Inhibition of mouse microglial phagocytosis at 10 μM (<70% control) ([2]; 10 μM, BV2): Y (The compound was found to inhibit phagocytosis (response threshold: <70% control) when murine immortalized microglial cells were dosed at 10 μM (Y: yes))
Inhibition of human microglial phagocytosis at 10 μM (<70% control) ([3]; 10 μM, HMC3): Y (The compound was found to inhibit phagocytosis (response threshold: <70% control) when human immortalized microglial cells were dosed at 10 μM (Y: yes))

solubility kinetic [6]: 161 µM (≈ 93.5 µg/mL)
SMILES: COc1cc(Nc2ncc(F)c(Nc3ccc4c(n3)N(COP(=O)(O)O)C(=O)C(C)(C)O4)n2)cc(OC)c1OC [Fostamatinib]
Mouse microglial cytotoxicity at 10 μM (<70% control) [1, 9]: Y (The compound was found to be cytotoxic (cell count threshold: <70% control) when murine immortalized microglial cells were dosed at 10 μM (Y: yes))
Inhibition of mouse microglial phagocytosis at 10 μM (<70% control) ([2]; BV2 cells, 10 μM): Y (The compound was found to inhibit phagocytosis (response threshold: <70% control) when murine immortalized microglial cells were dosed at 10 μM (Y: yes))
Stimulation of human microglial phagocytosis at 10 μM (>150% control) ([3]; HMC3 cells, 10 μM): Y (The compound was found to stimulate phagocytosis (response threshold: >150% control) when human immortalized microglial cells were dosed at 10 μM (Y: yes))
Reported as cell active (<10 μM) [7]: Y (Published data supports that the compound is active in a cellular system when dosed at 10 μM (Y/N))

solubility kinetic [4, 8]: < 0.5 µM
SMILES: CCCN(CC1CC1)c1nc(C)nc(Nc2c(Cl)cc(Cl)cc2Cl)c1Cl.Cl [NBI 27914 (Compound 7a)]
Mouse microglial cytotoxicity at 10 μM (<70% control) ([1]; BV2, 10 μM): Y (The compound was found to be cytotoxic (cell count threshold: <70% control) when murine immortalized microglial cells were dosed at 10 μM (Y: yes))
Stimulation of mouse microglial phagocytosis at 10 μM (>150% control) ([2]; BV2, 10 μM): Y (The compound was found to stimulate phagocytosis (response threshold: >150% control) when murine immortalized microglial cells were dosed at 10 μM (Y: yes))

solubility kinetic ([4]; pH 7.4): 177 µM (≈ 110 µg/mL)
SMILES: CC(=O)N[C@H](Cc1ccc(O)cc1)C(=O)N1CCC[C@@H]1C(=O)N1C[C@@H](O)C[C@@H]1C(=O)NCC(=O)N[C@H](C)C(=O)NCC(N)=O [Rotigaptide] (Ac-[dY][dP][dHyp]G[dA]G-NH2)

solubility kinetic [4, 8]: 87.3 µM (≈ 65.3 µg/mL)
SMILES: COc1ccc(CC[C@@H](OC(=O)[C@@H]2CCCCN2C(=O)[C@H](c2cc(OC)c(OC)c(OC)c2)C2CCCCC2)c2cccc(OCC(=O)O)c2)cc1OC [SAFit1]
Stimulation of mouse microglial phagocytosis at 10 μM (>150% control) ([2]; 10 μM, BV2): Y (The compound was found to stimulate phagocytosis (response threshold: >150% control) when murine immortalized microglial cells were dosed at 10 μM (Y: yes))

solubility kinetic [4, 8]: 115 µM (≈ 54.3 µg/mL)
SMILES: CNC(=O)CN1CCC(Oc2cc3c(Nc4cccc(Cl)c4F)ncnc3cc2OC)CC1 [Sapitinib (AZD8931)]
Inhibition of mouse microglial phagocytosis at 10 μM (<70% control) ([2]; BV2, 10 μM): Y (The compound was found to inhibit phagocytosis (response threshold: <70% control) when murine immortalized microglial cells were dosed at 10 μM (Y: yes))
Stimulation of human microglial phagocytosis at 10 μM (>150% control) ([3]; HMC3, 10 μM): Y (The compound was found to stimulate phagocytosis (response threshold: >150% control) when human immortalized microglial cells were dosed at 10 μM (Y: yes))

solubility kinetic [4, 8]: 108 µM (≈ 37.9 µg/mL)
SMILES: Cc1cc(NC(=O)Cc2ccc(F)c(Cl)c2)n(C2CCCCC2)n1 [VU0810464]

solubility kinetic [4, 8]: 134 µM (≈ 96.7 µg/mL)
SMILES: C=Cc1c(C)c2cc3nc(cc4[nH]c(cc5nc(cc1[nH]2)C(C)=C5CCC(=O)O)c(CCC(=O)OC)c4C)[C@@]1(C)C3=CC=C(C(=O)OC)[C@H]1C(=O)OC [Verteporfin]
Stimulation of mouse microglial phagocytosis at 10 μM (>150% control) ([2]; BV2, 10 μM): Y (The compound was found to stimulate phagocytosis (response threshold: >150% control) when murine immortalized microglial cells were dosed at 10 μM (Y: yes))
Inhibition of human microglial phagocytosis at 10 μM (<70% control) ([3]; HMC3, 10 μM): Y (The compound was found to inhibit phagocytosis (response threshold: <70% control) when human immortalized microglial cells were dosed at 10 μM (Y: yes))

— publication PMC9019904, “AD Informer Set: Chemical tools to facilitate Alzheimer's disease drug discovery” (Alzheimer's & Dementia : Translational Research & Clinical …, 2022)
